# Assay results reported in ChEMBL document CHEMBL3739384 (Medchemcomm, 2015).
# Target: Histamine H4 receptor (Homo sapiens, UniProt Q9H3N8)
# Test: Displacement of [3H]-histamine from human histamine H4 receptor expressed in HEK293T cells after 1 to 1.5 hrs by liquid scintillation counting analysis
# Format: cell-based, HEK-293T
row,Ki,SMILES
1,6.92 µM,Cc1cc(N2CCN(C)CC2)nc(N2CCOCC2)n1
2,0.145 µM,CN1CCN(c2ncnc3c2oc2ccccc23)CC1
3,6.31 µM,COc1ccc2c(c1)[nH]c1c(N3CCN(C)CC3)ncnc12
4,0.148 µM,Cc1nc(N2CCN(C)CC2)c2oc3ccccc3c2n1
5,6.92 µM,Cc1cc2nc(SCCN(C)C)[nH]c2cc1C
6,5.89 µM,COc1ccc2[nH]c3c(N4CCN(C)CC4)ncnc3c2c1
7,6.46 µM,Cc1nnc2c(N3CCN(C)CC3)nc3ccccc3n12
8,0.269 µM,CCc1nc(N2CCN(C)CC2)c2oc3ccccc3c2n1
9,5.89 µM,CN(C)CCNc1ncnc2c1[nH]c1ccc(Cl)cc12

# Target: Beta-2 adrenergic receptor (Homo sapiens, UniProt P07550)
# Test: Displacement of [3H]-dihydroalprenolol from human beta2 adrenergic receptor expressed in HEK293T cells after 1 to 1.5 hrs by liquid scintillation counting analysis
# Format: cell-based, HEK-293T
# Sequence of Beta-2 adrenergic receptor (P07550 whole entry): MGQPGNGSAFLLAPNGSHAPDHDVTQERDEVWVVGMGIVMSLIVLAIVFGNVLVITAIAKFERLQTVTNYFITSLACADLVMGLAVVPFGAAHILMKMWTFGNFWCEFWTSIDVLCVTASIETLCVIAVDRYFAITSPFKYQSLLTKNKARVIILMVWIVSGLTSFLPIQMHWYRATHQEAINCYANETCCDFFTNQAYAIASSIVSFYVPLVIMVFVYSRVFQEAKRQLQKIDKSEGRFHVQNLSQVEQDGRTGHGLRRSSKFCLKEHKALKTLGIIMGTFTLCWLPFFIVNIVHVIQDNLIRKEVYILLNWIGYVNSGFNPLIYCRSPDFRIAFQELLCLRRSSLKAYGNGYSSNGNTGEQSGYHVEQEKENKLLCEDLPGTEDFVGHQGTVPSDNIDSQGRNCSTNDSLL
row,Ki,SMILES
1,> 10 µM,CN1CCN(c2ncnc3c2oc2ccccc23)CC1
2,> 10 µM,COc1ccc2c(c1)[nH]c1c(N3CCN(C)CC3)ncnc12
3,> 10 µM,Cc1nc(N2CCN(C)CC2)c2oc3ccccc3c2n1
4,> 10 µM,COc1ccc2[nH]c3c(N4CCN(C)CC4)ncnc3c2c1
5,> 10 µM,CCc1nc(N2CCN(C)CC2)c2oc3ccccc3c2n1
6,> 10 µM,CN(C)CCNc1ncnc2c1[nH]c1ccc(Cl)cc12

# Target: Histamine H1 receptor (Homo sapiens, UniProt P35367)
# Test: Displacement of [3H]-mepyramine from human histamine H1 receptor expressed in HEK293T cells after 1 to 1.5 hrs by liquid scintillation counting analysis
# Format: cell-based, HEK-293T
# Sequence of Histamine H1 receptor (P35367 whole entry): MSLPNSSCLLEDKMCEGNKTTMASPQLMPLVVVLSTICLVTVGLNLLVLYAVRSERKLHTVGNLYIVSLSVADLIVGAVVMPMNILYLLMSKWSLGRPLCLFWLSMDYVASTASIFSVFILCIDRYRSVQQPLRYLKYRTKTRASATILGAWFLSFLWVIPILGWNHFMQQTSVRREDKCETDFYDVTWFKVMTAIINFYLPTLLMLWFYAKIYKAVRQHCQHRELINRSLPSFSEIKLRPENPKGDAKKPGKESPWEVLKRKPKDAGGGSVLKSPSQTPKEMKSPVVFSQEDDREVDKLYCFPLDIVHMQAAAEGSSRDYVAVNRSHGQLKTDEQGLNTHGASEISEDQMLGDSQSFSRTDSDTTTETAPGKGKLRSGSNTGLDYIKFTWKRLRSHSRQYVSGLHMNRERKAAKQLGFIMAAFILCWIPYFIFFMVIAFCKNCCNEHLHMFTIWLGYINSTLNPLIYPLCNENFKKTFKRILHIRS
row,Ki,SMILES
1,< 10 µM,Cc1cc(N2CCN(C)CC2)nc(N2CCOCC2)n1
2,> 10 µM,Cc1cc2nc(SCCN(C)C)[nH]c2cc1C
3,< 10 µM,Cc1nnc2c(N3CCN(C)CC3)nc3ccccc3n12
